Measurements from patent publication US8324250B2 (Hoffmann-La Roche Inc., priority 2009, dated 2012).

Experiments:
[1] = phase II trial, cited from earlier work
[2] = target: T1, recombinant human NK3 receptor (Homo sapiens, UniProt P29371); assay: [3H]SR142801 competition binding assay; details: membranes from HEK293 cells transiently expressing recombinant human NK3 receptor; [3H]SR142801 radioligand; 75 min at RT; Ki by Cheng-Prussoff; read-out: Data Ki (hNK-3 receptor affinity)
T1 construct: expressed in transfected cells; host or cells: HEK293 cells (transient expression), membranes
T1 sequence (P29371 1-465): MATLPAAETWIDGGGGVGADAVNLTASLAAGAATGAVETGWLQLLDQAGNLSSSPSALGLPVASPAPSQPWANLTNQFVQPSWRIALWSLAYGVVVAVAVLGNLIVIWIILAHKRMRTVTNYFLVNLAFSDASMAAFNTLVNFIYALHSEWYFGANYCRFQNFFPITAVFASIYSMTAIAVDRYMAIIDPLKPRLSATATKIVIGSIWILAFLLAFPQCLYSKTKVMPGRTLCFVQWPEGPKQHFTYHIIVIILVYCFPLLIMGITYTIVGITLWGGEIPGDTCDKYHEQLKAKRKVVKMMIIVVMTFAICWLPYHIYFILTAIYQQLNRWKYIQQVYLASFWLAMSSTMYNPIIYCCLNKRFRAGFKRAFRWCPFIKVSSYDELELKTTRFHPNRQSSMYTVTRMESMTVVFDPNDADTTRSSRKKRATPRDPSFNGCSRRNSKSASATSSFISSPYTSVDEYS
Procedure, shortened: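 Membranes from HEK293 cells transiently expressing the receptor, 5 μg protein/well, in 50 mM Tris-HCl pH 7.4 with 4 mM MnCl2, 1 μM phosphoramidon, 0.1% BSA; nonspecific binding defined with 10 μM SB222200. Filtration and scintillation counting; IC50 from Hill fit, Ki by Cheng-Prussoff using saturation-derived KD, duplicates.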

Row | SMILES | activity in the treatment of negative symptoms of schizophrenia ([1]; negative symptoms (depression, anhedonia, social isolation, memory and attention deficits)) | activity on positive symptoms of schizophrenia ([1]; positive symptoms (altered behaviour, delusion, hallucinations, extreme emotions, excited motor activity, incoherent speech)) | Ki [2] [nM]
1 | CC(=O)N(C)C1(c2ccccc2)CCN(CCC[C@]2(c3ccc(Cl)c(Cl)c3)CCCN(C(=O)c3ccccc3)C2)CC1 [SR 142,801, Osanetant] | inactive | active | –
2 | Cc1noc(-c2ccc(C(=O)N3CCC(C(=O)N(C)Cc4ccc(F)cc4)(c4ccccc4)CC3)cc2)n1 [Example 105, 1-[4-(3-Methyl-[1,2,4]oxa-diazol-5-yl)-benzoyl]-4-phenyl-piperidine-4-carboxylic acid (4-fluoro-benzyl)-methyl-amide] | – | – | 5.2
3 | O=C(N1CCN(c2ccc(F)cc2)CC1)N1CCC(C(=O)NC(c2ccc(F)cc2)C(F)(F)F)(c2ccc(F)cc2)CC1 (centres unmarked) [Example 176, 4-(4-Fluoro-phenyl)-1-[4-(4-fluoro-phenyl)-piperazine-1-carbonyl]-piperidine-4-carboxylic acid [2,2,2-trifluoro-1-(4-fluoro-phenyl)-ethyl]-amide] | – | – | 77
4 | CC[C@H](NC(=O)C1(c2ccccc2)CCN(C(=O)c2ccc(-c3nc(C)no3)cc2)CC1)c1ccccc1 [Example 83, 1-[4-(3-Methyl-[1,2,4]oxa-diazol-5-yl)-benzoyl]-4-phenyl-piperidine 4-carboxylic acid ((S)-1-phenyl-propyl)-amide] | – | – | 1.1
5 | C[C@H](NC(=O)C1(c2ccccc2)CCN(C(=O)c2ccc(-c3ccn(C)n3)cc2)CC1)c1ccccc1 [Example 69, l-[4-(1-Methyl-1 H-pyrazol-3-yl)-benzoyl]-4-phenyl-piperidine-4-carboxylic acid ((S)-1-phenyl-ethyl)-amide] | – | – | 77.3
6 | Cc1noc(-c2ccc(C(=O)N3CCC(C(=O)N[C@@H](C)C4CCCCC4)(c4ccccc4)CC3)cc2)n1 [Example 74] | – | – | 1
7 | C[C@H](NC(=O)C1(c2ccccc2)CCN(C(=O)c2cc(-c3ccc(F)cc3)no2)CC1)c1ccccc1 [Example 62, 1-[3-(4-Fluoro-phenyl)-isoxazole-5-carbonyl]-4-phenyl-piperidine-4-carboxylic acid ((S)-1-phenyl-ethyl)-amide] | – | – | 63.5
